One assay concerns the target Translocator protein (Homo sapiens, UniProt P30536). Kind of assay: Displacement of [3H]PK11195 from wild-type human TSPO expressed in HEK293 cell membranes after 90 mins by scintillation counting method. On the set-up: species or system Cell membrane. In general terms: Displacement assays read how much labelled ligand stays bound in the presence of the test substance.

For a further assay, the species on record is Homo sapiens. The assay can be described thus: Selectivity index, ratio of Ki for human TSPO A147T mutant expressed in HEK293 cell membranes to Ki for human TSPO expressed in HEK293 cell membranes. The class given is cell-based.

Activity calls are given as the source filed them. The rule behind the calls is not given here.

Chain of Translocator protein (P30536 whole entry): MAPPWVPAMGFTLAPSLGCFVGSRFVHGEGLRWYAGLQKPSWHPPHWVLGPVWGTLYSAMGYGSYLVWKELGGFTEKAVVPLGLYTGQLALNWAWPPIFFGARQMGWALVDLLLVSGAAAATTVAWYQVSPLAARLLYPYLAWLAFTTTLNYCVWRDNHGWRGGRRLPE

One may read the Ki as a dissociation constant, usually derived from enzyme kinetics or from competition with a known ligand. Lower therefore signals a stronger hold on the target. The molecule `C#CCN(C)C(=O)c1cc2cc(NS(C)(=O)=O)ccc2n1Cc1ccc(OC)cc1` displayed a Ki on Translocator protein of 1500 nM. The Ratio Ki in the assay listed under Homo sapiens stood at 0.5.
In the same order, the values of `CCN(CC)C(=O)c1cc2cc(C)ccc2n1Cc1ccc(OCc2ccccc2)cc1` are > 10000 nM and “inactive”.
`C#CCN(C)C(=O)c1cc2cc(NC(C)=O)ccc2n1Cc1ccc(OC)cc1`: the affinity on Translocator protein, expressed as Ki, was 2070 nM. For the same molecule, in the assay listed under Homo sapiens, the Ratio Ki came out at 1.4.
On Translocator protein, `CC(=O)N(Cc1ccc(OCc2ccccc2)cc1)c1cc(C)cc(C)c1` came in with a Ki of 377 nM. Moreover, the Ratio Ki in the assay filed under Homo sapiens amounted to 2.
As for `CCN(CC)C(=O)CN(Cc1ccccc1)c1cc(C)cc(C)c1`, on Translocator protein, the Ki worked out at 1010 nM. For the same molecule, in the assay filed under Homo sapiens, the Ratio Ki was 4.2.
Molecule `COc1ccc(CN(C(C)=O)c2cc(C)cc(C)c2)cc1` had a Ki at Translocator protein of 500 nM. Also, the Ratio Ki in the assay filed under Homo sapiens came to 5.6.
As to `CCN(CC)C(=O)c1cc2cc(C)ccc2n1Cc1cn[nH]n1`, the Ki at Translocator protein is > 10000 nM. The “Ratio Ki” value in the assay listed under Homo sapiens was “inactive”.
On Translocator protein, `CC(=O)N(Cc1ccc(OCCF)cc1)c1cc(C)cc(C)c1` gave a Ki of 275 nM. Also, the Ratio Ki in the assay filed under Homo sapiens stood at 14.3.
With `CC(=O)N(Cc1ccc(OC(C)C)cc1)c1cc(C)cc(C)c1`, the affinity at Translocator protein corresponds to a Ki of 823 nM. For the same molecule, in the assay listed under Homo sapiens, the Ratio Ki came out at 3.8.
`CCN(CC)C(=O)Cn1c(-c2ccc(OC)cc2)nc2c(C)cc(C)cc21`: at Translocator protein, the Ki is 208 nM. For the same molecule, the Ratio Ki in the assay listed under Homo sapiens amounted to 4.2.
As for `CCN(CC)C(=O)CN(Cc1ccc(OCCF)cc1)c1cc(C)cc(C)c1`, on Translocator protein, the Ki came out at 1290 nM. Also, in the assay listed under Homo sapiens, the Ratio Ki is > 7.7.
With `CCN(CC)C(=O)c1nc2ccccc2n1Cc1ccccc1`, on Translocator protein, the Ki is > 10000 nM. Besides, the “Ratio Ki” value in the assay listed under Homo sapiens is “inactive”.
In the same order, the values of `CC(=O)N(Cc1ccccc1)c1cc(C)cc(C)c1` are 275 nM and 4.6.
In the same order, the values of `CN(Cc1ccccc1)C(=O)c1nc2ccccc2n1Cc1ccc(Cl)cc1` are > 10000 nM and “inactive”.
The molecule `C#CCN(C)C(=O)c1nc2ccccc2n1Cc1ccc(OC)cc1` came in with a Ki on Translocator protein of 3280 nM. In addition, in the assay filed under Homo sapiens, the Ratio Ki is > 3.
For `CCN(CC)C(=O)CN(Cc1ccc(OCc2ccccc2)cc1)c1cc(C)cc(C)c1` the same measures were 433 nM and 4.2.
For `CCN(CC)C(=O)CN(Cc1ccc(OC)cc1)c1cc(C)cc(C)c1` the same measures were 1200 nM and 3.5.
`CCN(CC)C(=O)c1nc2ccccc2n1Cc1ccc(Cl)cc1`: the Ki at Translocator protein was > 10000 nM. Further, the Ratio Ki in the assay listed under Homo sapiens is < 0.3.
As for `CCN(CC)C(=O)c1nc2ccccc2n1Cc1ccc(OC)cc1`, the Ki on Translocator protein was 3060 nM. Moreover, the Ratio Ki in the assay filed under Homo sapiens was > 3.3.
The molecule `CCN(CC)C(=O)Cn1c(-c2ccc(OC)cc2)cc2c(C)cc(C)cc21` had a Ki on Translocator protein of 114 nM. Also, the Ratio Ki in the assay filed under Homo sapiens came out at 5.7.
Take `CCN(CC)C(=O)c1cc2cc(C)ccc2n1Cc1ccc(O)cc1`: the Ki at Translocator protein is > 10000 nM. Besides, in the assay filed under Homo sapiens, the “Ratio Ki” value was “inactive”.
Consider `CCN(CC)C(=O)CN(Cc1ccc(OC(C)C)cc1)c1cc(C)cc(C)c1`, for which, on Translocator protein, the affinity, expressed as Ki, was 2240 nM. The Ratio Ki in the assay filed under Homo sapiens is > 4.5.
Regarding `C#CCN(C)C(=O)c1nc2ccccc2n1Cc1ccc(Cl)cc1`, the Ki at Translocator protein is > 10000 nM. Besides, the “Ratio Ki” value in the assay listed under Homo sapiens was “inactive”.
Turning to `CCN(CC)C(=O)c1nc2ccccc2n1Cc1ccc(OC)nc1`, the Ki on Translocator protein was > 10000 nM. Also, the “Ratio Ki” value in the assay listed under Homo sapiens is “inactive”.
`C#CCN(C)C(=O)c1cc2cc(C)ccc2n1Cc1ccc(OC)nc1`: the Ki at Translocator protein is > 10000 nM. Moreover, the Ratio Ki in the assay listed under Homo sapiens was determined as 0.1.
